Experimental data from patent US20240293563A1, “GLP-1 RECEPTOR LIGAND MOIETY CONJUGATED OLIGONUCLEOTIDES AND USES THEREOF” (priority 2017, published 2024).
k = constrained ethyl (cEt); d = 2'-deoxy (DNA)

What was measured:
MALAT1 mRNA [1] = experiment: MALAT1 mRNA in isolated islets and liver 72 hrs after single subcutaneous dose; type: in vivo, mouse; conditions: single subcutaneous injection 0.01, 0.1 or 1 μmol/kg
Procedure: (§1) Pancreatic islets were isolated by collagenase digestion from pancreas collected from exsanguinated 12 to 15 weeks old female C57BL/6Crl mice. Islets were maintained in tissue culture until use. Islet were dissociated into single cells by shaking in media containing a low extracellular calcium concentration. 10 to 20 intact or dissociated islets were plated on plastic Petri Dishes and treated with 10 μM of antisense oligonucleotides for approximately 24 hrs. After the treatment period cells were harvested, RNA isolated, adjusted to total RNA content, as measured by RIBOGREEN®. MALAT1 or FOXO1 mRNA levels measured by quantitative real-time PCR. Mouse Malat1 mRNA levels was measured using gene expression assay Mm01227912_s1 from Applied Biosystems, whereas mouse FOXO1 mRNA levels was measured using a primer probe set with forward sequence […] All data was normalized to the mRNA level of the house keeping gene (RPLP0) in the same sample, measured using a primer probe set with forward sequence […]
(§2) All animals were sacrificed 72 hrs after last dose.

MALAT1 [2] = experiment: MALAT1 expression in pancreas by in situ hybridization (RNAscope); type: in vivo, mouse; conditions: 2 μmol/kg; subcutaneous or intravenous (ISIS 556089 subcutaneous only); 72 hrs after last dose
Excerpt: Female C57BL/6Crl mice were assigned to five treatment groups. […] All animals were sacrificed approximately 72 hrs after last dose, and pancreas harvested for ex vivo analysis of uptake of antisense oligonucleotides by immunohistochemistry.
Female C57BL/6Crl mice were assigned to five treatment groups as described herein (Example 11) All animals were sacrificed approximately 72 hrs after last dose, and pancreas harvested for ex vivo analysis of MALAT1 expression by in situ hybridization.
The in situ mRNA amplification and labelling process was performed on the Ventana Discovery ULTRA, an Automated ISH platform(Ventana Medical System, Inc) using the RNAscope® VS Assay based on Advanced Cell Diagnostics (ACD). Customized probes were obtained from ACD for the detection of MALAT1 mRNA, and various parameters were tested to optimize the novel RNAscope method for ISH. The signal was amplified using multiple steps, followed by labeled probes and detected using the RNAscope® 2.5 VS Reagent Kit-RED. Stained slides were analyzed under a standard bright-field microscope.

MALAT1 mRNA [3] = experiment: Dose dependent antisense inhibition of MALAT1 in WT HEK293 cells; type: cell-based, human; conditions: approximately 24 hrs, qRT-PCR normalized to RPLP0
MALAT-1 = experiment: Dose-dependent reduction of MALAT-1 expression in LVX-GLP1R cells; type: cell-based, human; conditions: approximately 24 hours; read-out: IC50 (MALAT-1 expression in GLP1R HEK cells)
Procedure: HEK cells stably expressing FLAG-tagged GLP1R were generated by infecting HEK 293 cells with FLAG-tagged GLP1R containing lentivirus produced by transfection of 293T cells with pLVX-IRES-Puro (Clontech Laboratories Inc., Mountainview, CA) harboring the FLAG-GLP1R insert. Infected cells were selected with puromycin (2 μg/ml) and then analyzed for receptor expression by western blot and immunofluorescence. Cultured GLP1R cells were plated at a density of 10,000 cells per well and treated with 0.3, 1, 3, 9, 27, 82, 247, 741, 2,222, 6,667, and 20,000 nM modified oligonucleotide for approximately 24 hours. After the treatment period, total RNA was prepared using an RNeasy mini kit (Qiagen, Valencia, CA, USA) and qRT-PCR was performed using the primer probe set RTS2739 (forward sequence: […] (SEQ ID NO: 74), reverse sequence: […] (SEQ ID NO: 75), probe sequence: […] (SEQ ID NO: 76). Briefly, ˜50 ng total RNA in 5 d water was mixed with 0.3 d primer probe sets containing forward and reverse primers (10 μM of each) and fluorescently labeled probe (3 μM), 0.3 W RT enzyme mix (Qiagen), 4.4 d RNase-free water, and 10 d of 2×PCR reaction buffer in a 20 d reaction. Reverse transcription was performed at 48° C. for 10 min, 40 cycles of PCR were conducted at 94° C. for 20 s, and 60° C. for 20 s within each cycle, using StepOne Plus RT-PCR system (Applied Biosystems, Phoenix, AZ, USA). The mRNA levels were normalized to the amount of total RNA present in each reaction as determined by Ribogreen assay (Life Technologies) and normalized to the saline control (100% expression).

MALAT1 mRNA [4] = experiment: Dose dependent antisense inhibition of MALAT1 in hGLP1R-HEK cells; type: cell-based, human; conditions: approximately 24 hrs, qRT-PCR normalized to RPLP0
Procedure: The hGLP1R-HEK cell line was generated by expressing hGLP1R in Flp-IN™ 293 cells. Cultured hGLP1R-HEK cells were seeded at a density 30,000 cells per well in 96 well plates and saline, 100 nM or 10 μM of unconjugated parent antisense oligonucleotide ISIS 556089 targeted to MALAT1 described above or ISIS 776102 (nucleobase sequence: […]) (SEQ ID NO: 64) targeted to FOXO1, or corresponding GLP-1 peptide conjugated antisense oligonucleotides (ISIS 816385 targeted to MALAT1 described above or ION 913193 targeted to FOXO1 described above) for approximately 24 hrs. After the treatment period, cells were harvested, the mRNA isolated and adjusted to total RNA content as measured by nanadrop UV-Vis spectrophotometer. MALAT1 or FOXO1 mRNA levels were measured by quantitative real-time PCR and normalized to the mRNA levels of the house keeping gene (RPLP0) in the same samples. Human MALAT1 mRNA levels were measured using gene expression assays HS00273907 and FOXO1 mRNA levels were measured using assay Hs01054576 (Applied Biosystems). The mRNA level of the house keeping gene RPLP0 was measured using a primer probe set with forward sequence […] CAT […] (SEQ ID NO: 66), reverse sequence […] (SEQ ID NO: 67). […]
After the treatment period cells were harvested, mRNA isolated and MALAT1 mRNA levels measured by quantitative real-time PCR using the primer probe set as described herein (Example 7). […]

MALAT1 [5] = experiment: In situ hybridization of MALAT1 (QuantiGene ViewRNA) in mouse tissues after intravenous ASO; type: in vivo
Excerpt: NO: 63) or a GLP-1 conjugated MALAT1 ASO (ISIS 816385) described in Example 1 at concentrations of 1.8. 0.6, or 0.2 μmol/kg. […] MALAT1 expression was detected using the QuantiGene ViewRNA tissue assay (Affymetrix, cat. No. QVT0011). Species-specific MALAT1 probes were purchased from Affymetrix (cat. No. VB-11110-01/mouse; VF1-13963/monkey). In brief, mouse tissues were fixed in 10% neutral-buffered formalin and embedded into paraffin and sectioned into […]. After deparaffinization, the tissue slides were boiled in Affymetrix pretreatment solution for 10-30 minutes followed by treatment with protease at 40° C. for 10 to 40 minutes depending on tissue. The MALAT1 RNA probe was used at a 1:40 dilution and was incubated with sample at 40° C. for 120 minutes. After washing, the MALAT1 RNA/probe complex was hybridized with preamplifier, amplifier, and AP-oligonucleotides at 40° C. for 25, 15, and 15 minutes, respectively. After removal of free AP oligonucleotide by washing in PBS, the slide was incubated with Fast Red substrate at room temperature for 30 minutes. The tissue images were acquired using an Aperio scanner. Hung et al., 2013 Nuc Acid Ther. 369-78. To determine a dose response of a GLP-1 conjugated MALAT1 ASO (ISIS 816385) described in Example 1 on pancreatic MALAT1 expression, male C57BL/6 mice fed a chow diet received a single intravenous injection of ISIS 816385 or an unconjugated MALAT1 ASO (ISIS 556089) described above at concentrations of 0.2, 0.06, and 0.02 μmol/kg. MALAT1 expression was detected using the QuantiGene ViewRNA tissue assay described above.

MALAT1 [6] = experiment: Effect of peptide composition and attachment point on peptide-conjugated ASO activity in LVX-GLP1R cells; type: cell-based, human; conditions: 7 doses in a 4-fold dilution series, MALAT1 RNA
MALAT1 [7] = experiment: MALAT1 in situ hybridization in beta islet cells after i.v. GLP-1 ASO conjugates with various linkers; type: in vivo, mouse; conditions: male C57BL/6 mice; intravenous 0.6 μmol/kg/week once a week for three weeks; 72 hours after final injection
FOXO1 mRNA [8] = experiment: FOXO1 mRNA in isolated islets and liver 72 hrs after single subcutaneous dose; type: in vivo, mouse; conditions: single subcutaneous injection 0.01 or 1 μmol/kg
Procedure: as §1, §2

FOXO1 mRNA [9] = experiment: FOXO1 mRNA in cultured mouse primary islets of Langerhans treated with ASO; type: cell-based; conditions: for Islet FOXO1 mRNA levels relative to control (RPLP0): percent of untreated cells, 1 μM ASO 3 hrs every 24 hrs
Procedure: Pancreatic islets were isolated by collagenase digestion from pancreas collected from exsanguinated 12 to 15 weeks old female C57BL/6Crl mice. Islets were maintained in tissue culture until use. Islet were dissociated into single cells by shaking in media containing a low extracellular calcium concentration. 10 to 20 intact or dissociated islets were plated on plastic Petri Dishes and treated with 10 μM of antisense oligonucleotides for approximately 24 hrs. After the treatment period cells were harvested, RNA isolated, adjusted to total RNA content, as measured by RIBOGREEN®. MALAT1 or FOXO1 mRNA levels measured by quantitative real-time PCR. […] All data was normalized to the mRNA level of the house keeping gene (RPLP0) in the same sample, measured using a primer probe set with forward sequence […] NO: 71), reverse sequence […] NO: 72) and probe sequence […] NO: 73). Pancreatic islets were isolated by collagenase digestion from pancreas collected from euthanized 12 to 15 weeks old female B6.Cg-Lepob/J mice and maintained in tissue culture until use. 150 intact islets were placed in plastic Petri Dishes and treated with 1 μM of antisense oligonucleotides for 3 hrs every 24 hrs and harvested after approximately 24 hrs, 48 hrs or 96 hrs total treatment time respectively. After the treatment period, islets were harvested, and half of the islets were used to measure FOXO1 mRNA levels as described herein (Example 9). Half of the islets were homogenized in M-PER protein extraction reagent (Thermo Scientific) containing a protease inhibitor cocktail (Complete Mini and phosphoSTOP, Roche Diagnostics). The protein content of lysates were quantitated using BCA Assay Reagent (Pierce). […] For the anti-FoxO1 antibody, the secondary antibody was HRP-conjugated polyclonal goat anti-Rabbit P0448 (DAKO) and for the anti-α-tubulin antibody, the secondary antibody was HRP-conjugated polyclonal goat anti-mouse P0447 (DAKO). Enhanced chemiluminescence reagents (Pierce) were used for detection.

FOXO1 mRNA [10] = experiment: FOXO1 mRNA in isolated islets and liver after 6 weeks repeated administration to ob/ob mice; type: in vivo, mouse; conditions: male ob/ob mice; 0.1 μmol/kg once weekly for 6 weeks; 120 hrs after last dose
Procedure: Pancreatic islets were isolated by collagenase digestion from pancreas collected from exsanguinated 12 to 15 weeks old female C57BL/6Crl mice. Islets were maintained in tissue culture until use. Islet were dissociated into single cells by shaking in media containing a low extracellular calcium concentration. 10 to 20 intact or dissociated islets were plated on plastic Petri Dishes and treated with 10 μM of antisense oligonucleotides for approximately 24 hrs. After the treatment period cells were harvested, RNA isolated, adjusted to total RNA content, as measured by RIBOGREEN®. MALAT1 or FOXO1 mRNA levels measured by quantitative real-time PCR. […] All data was normalized to the mRNA level of the house keeping gene (RPLP0) in the same sample, measured using a primer probe set with forward sequence […] NO: 71), reverse sequence […] NO: 72) and probe sequence […] NO: 73). Male ob/ob mice (B6.V-Lepob/OlaHsd, Harlan) were assigned to five treatment groups receiving either vehicle, 0.1 μmol/kg ISIS 776102, 0.1 μmol/kg ION 913195, 0.03 ION 913193 or 1 μmol/kg ION 913193. All animals were treated once weekly for 6 weeks. Approximately 120 hrs after last dose all animals were sacrificed, liver samples collected and pancreatic islets isolated, as described herein (Example 9), for mRNA analysis. FOXO1 mRNA levels were quantified as described herein (Example 9) and mRNA levels expressed relative to housekeeping gene in each sample (RPLP0).

Substance: ISIS 556089: unconjugated parent 3-10-3 cEt ASO targeting murine MALAT1, nucleobase sequence GCATTCTAATAGCAGC (SEQ ID NO: 63) (sugars from the 5' end k3 d10 k3, backbone and methylation of C not given here) [reference compound]
- antisense inhibition of MALAT1 in islet of Langerhans (MALAT1 mRNA [1]): No significant antisense inhibition
- MALAT1 expression in the pancreatic islet of Langerhans (MALAT1 [2]): not reduced
- IC50 (MALAT1 mRNA [3]): 0.74 µM
- IC50 (MALAT-1): 3.97 µM
- IC50 (MALAT1 mRNA [4]): 0.87 µM
- effect in liver (MALAT1 in situ hybridization) (MALAT1 [5]; Study 2, single intravenous injection, any of the doses 0.2, 0.06, 0.02 μmol/kg): No observable effect
- MALAT1 expression in pancreatic beta islet cells (in situ hybridization) (MALAT1 [5]; male C57BL/6 mice, 2 intravenous injections of 1.8, 0.6 or 0.2 μmol/kg, 72 hours after final injection): not
- IC50 (MALAT1 [6]): 3.82 µM
- MALAT1 expression in beta islet cells compared to saline control (in situ hybridization) (MALAT1 [7]): not

Substance: ISIS 776102: unconjugated parent antisense oligonucleotide targeted to FOXO1, nucleobase sequence TCTTCTTAAAATACCC (SEQ ID NO: 64) (listed as DNA, further chemistry not given here) [reference compound]
- antisense inhibition of FOXO1 in islet of Langerhans (FOXO1 mRNA [8]): No significant antisense inhibition
- reduction in FOXO1 mRNA (FOXO1 mRNA [9]; mouse islets, 1 μM ASO, summary of Table 2): marginal reduction
- Islet FOXO1 mRNA levels relative to control (RPLP0) (FOXO1 mRNA [9]; 24 hours): 82%
- Islet FOXO1 mRNA levels relative to control (RPLP0) (FOXO1 mRNA [9]; 48 hours): 86%
- Islet FOXO1 mRNA levels relative to control (RPLP0) (FOXO1 mRNA [9]; 96 hours): 92%
- antisense inhibition of FOXO1 in islet of Langerhans (FOXO1 mRNA [10]): No significant antisense inhibition
